Data from patent US9422300B2, “Bisulfate of janus kinase (JAK) inhibitor and preparation method therefor” (Jiangsu Hengrui Medicine Co., Ltd., priority 2013, dated 2016).
Like-named read-outs stand apart in the source and are kept apart here.

Key:
[1] = Pharmacokinetic parameters in rhesus monkeys; type: in vivo; settings: for individual variation of in vivo exposure / AUC(0-t) / Cmax / MRT / t1/2: 50 mg/kg; for AUC(0-t) / Cmax / MRT / t1/2: rhesus monkeys, single dose, plasma
Description: The pharmacokinetic parameters of the compound of formula (IV) and its different salt forms were studied in rhesus monkeys, and the properties of the different forms of the compounds were evaluated in detail. Four rhesus monkeys were used as test animals, half male and half female. The rhesus monkeys were administered a single dose of 50 mg/kg. Multi-crossover design was adopted to administer different drugs to test animals, and the convalescence from each cycle was three days. Blood samples (0.5 mL) were taken from the femoral vein before administration (0 h), and at 0.25 h, 0.5 h, 1 h, 2 h, 4 h, 6 h, 8 h and 24 h after administration, stored in heparinized tubes, shaken well, and centrifuged for 10 minutes at 3500 rpm to separate blood plasma. The plasma samples were stored at low temperature, LC-MS/MS was used to measure drug concentration in plasma and liver, and pharmacokinetic parameters were analyzed by WinNonlin 5.3 software.

[2] = test system: rheumatoid arthritis patients; settings: phase III clinical trial, cited from earlier work

t1/2 [1]	Compound	AUC(0-t) [1]	Cmax [1]	MRT [1]	further results
6.3 ± 3.5 h	COc1nsc(NC(=O)N2C[C@H]3C[C@H](N(C)c4ncnc5[nH]ccc45)C[C@H]3C2)n1 [Compound of formula (IV), (3aR,5s,6aS)—N-(3-Methoxy-1,2,4-thiadiazol-5-yl)-5-(methyl(7H-pyrrolo[2,3-d]pyrimidin-4-yl)amino)hexahydrocyclopenta[c]pyrrol-2(1H)-carboxamide]	41111 ± 59593 ng·h/mL	6176 ± 8838 ng/mL	8.8 ± 5.16 h	in vivo exposure ([1]; monkeys, 50 mg/kg single dose): 41111 ng/ml*h; individual variation of in vivo exposure ([1]; monkeys, 50 mg/kg single dose): relatively large individual variation
	C[C@@H]1CCN(C(=O)CC#N)C[C@@H]1N(C)c1ncnc2[nH]ccc12 [tofacitinib]				efficacy compared with methotrexate ([2]; 5 mg/10 mg as a single drug): significantly better than methotrexate; efficacy in reducing the progression of internal structural damage compared with methotrexate ([2]; period of six months): slightly better than methotrexate
5.3 ± 1.6 h	COc1nsc(NC(=O)N2C[C@H]3C[C@H](N(C)c4ncnc5[nH]ccc45)C[C@H]3C2)n1 [Bisulfate, (3aR,5s,6aS)—N-(3-methoxyl-1,2,4-thiadiazol-5-yl)-5-(methyl(7H-pyrrolo[2,3-d]pyrimidin-4-yl)amino)hexahydrocyclopenta[c]pyrrole-2(1H)-carboxamide bisulfate]				AUC(0-t) ([1]; both sexes, rhesus monkey, read-out: AUC(0-t)): 63000 ± 53600 ng·h/mL; Cmax ([1]; both sexes, rhesus monkey, read-out: Cmax): 9940 ± 5320 ng/mL; MRT ([1]; both sexes, rhesus monkey, read-out: MRT): 6.3 ± 1.7 h; increase of in vivo exposure relative to that of the base ([1]; monkeys, 50 mg/kg single dose): 50%; individual variation of in vivo exposure ([1]; monkeys, 50 mg/kg single dose, listed as bisulfate salt): relatively small individual variation

Compound	t1/2 [1]	AUC(0-t) [1]	Cmax [1]	MRT [1]	further results
Citrate	6.3 ± 5.5 h	44357 ± 45012 ng·h/mL	5627 ± 4201 ng/mL	10.0 ± 7.6 h	
